According to patent publication US20250268903A1, “RXFP1 AGONISTS” (BRISTOL-MYERS SQUIBB COMPANY, priority 2021, published 2025):

What follows are molecules tested against T1, human RXFP1 (Homo sapiens, UniProt Q9HBX9) (assay: hRXFP1 HEK293 cAMP assay (HTRF)). Details: HEK293 cells stably expressing human RXFP1, 30 min at room temperature.
T1 construct: expressed in transfected cells
T1 sequence (Q9HBX9 1-757): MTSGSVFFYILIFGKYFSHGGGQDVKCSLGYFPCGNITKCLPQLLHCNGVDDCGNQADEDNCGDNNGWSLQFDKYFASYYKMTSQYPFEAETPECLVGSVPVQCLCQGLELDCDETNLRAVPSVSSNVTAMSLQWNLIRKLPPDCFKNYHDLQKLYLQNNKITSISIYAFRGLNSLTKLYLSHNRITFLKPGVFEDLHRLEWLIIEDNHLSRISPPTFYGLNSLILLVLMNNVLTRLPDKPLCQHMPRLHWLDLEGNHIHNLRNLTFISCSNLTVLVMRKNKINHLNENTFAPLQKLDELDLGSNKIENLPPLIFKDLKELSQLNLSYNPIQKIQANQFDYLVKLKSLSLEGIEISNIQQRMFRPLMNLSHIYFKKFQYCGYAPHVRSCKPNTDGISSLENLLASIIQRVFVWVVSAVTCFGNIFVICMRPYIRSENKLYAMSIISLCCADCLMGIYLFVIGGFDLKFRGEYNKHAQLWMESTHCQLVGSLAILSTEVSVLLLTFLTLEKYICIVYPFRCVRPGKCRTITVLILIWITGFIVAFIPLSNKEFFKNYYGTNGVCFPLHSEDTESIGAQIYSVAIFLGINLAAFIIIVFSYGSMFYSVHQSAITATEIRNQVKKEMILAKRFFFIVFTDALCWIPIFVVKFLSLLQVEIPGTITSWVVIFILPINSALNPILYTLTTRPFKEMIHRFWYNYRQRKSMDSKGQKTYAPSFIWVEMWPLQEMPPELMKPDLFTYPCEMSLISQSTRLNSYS
Assay type: cell-based
Method in brief: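 HEK293 cells stably expressing human RXFP1 were suspended in HBSS (Ca/Mg) with 20 mM HEPES, 0.05% BSA and 0.5 mM IBMX, then treated with compounds (0.010 nM–50 μM, 2% DMSO final) for 30 min at room temperature. Intracellular cAMP was measured by HTRF, and potency was derived from 4-parameter logistic fits.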
For `COc1ccc(S(=O)(=O)N2CCN(CCCO)CC2)cc1C(=O)N[C@H]1[C@@H](C(=O)Nc2ccc(F)c(C(F)(F)F)c2)[C@H]2CC[C@@H]1/C2=C\C(F)(F)F` [Example 211, (1R,2S,3R,4R,7Z)-N-[4-fluoro-3 (trifluoromethyl)phenyl]-3-(5-{[4-(3-hydroxypropyl)piperazin-1-yl]sulfonyl}-2-methoxybenzamido)-7-(2,2,2-trifluoroethylidene) bicyclo[2.2.1] heptane-2-carboxamide], the EC50 was 551 nM. For `COC(=O)C1CC(c2ccc(OC)c(C(=O)N[C@H]3[C@@H](C(=O)Nc4ccc(F)c(C(F)(F)F)c4)[C@H]4CC[C@@H]3/C4=C\C3CC3)c2)C1` (single isomer, unassigned) [Example 328], the EC50 was 21.3 nM. Work on `COc1ccc(CCC(=O)NCCO)cc1C(=O)N[C@@H]1C2CCC(/C2=C/C(F)(F)F)[C@@H]1C(=O)Nc1ccc(F)c(C(F)(F)F)c1` (stereo partly drawn) [Example 137, (2S,3R,7Z)-N-[4-fluoro-3-(trifluoromethyl)phe-nyl]-3-(5-{2-[(2-hydroxyethyl)carba-moyl]ethyl}-2-methoxybenzamido)-7-(2,2,2-trifluoroethylidene)bi-cyclo[2.2.1]heptane-2-carboxamide] yielded an EC50 of 400 nM. `COc1ccc(S(=O)(=O)NC[C@H](C)O)cc1C(=O)N[C@@H]1C2CCC(/C2=C/C(F)(F)F)[C@@H]1C(=O)Nc1ccc(F)c(C(F)(F)F)c1` (stereo partly drawn) [Example 197, (1R,2S,3R,4R,Z)—N-(4-fluoro-3-(trifluoromethyl)phenyl)-3-(5-(N—((S)-2-hydroxypropyl)sulfamoyl)-2-methoxybenzamido)-7-(2,2,2-trifluoroethylidene) bicyclo[2.2.1]heptane-2-carboxamide] showed an EC50 of 918 nM. With `COc1ccc(/C=C/C(=O)N(C)CCO)cc1C(=O)N[C@@H]1C2CCC(/C2=C/C(F)(F)F)[C@@H]1C(=O)Nc1ccc(F)c(C(F)(F)F)c1` (stereo partly drawn) [Example 126, (2S,3R,7Z)-N-[4-fluoro-3-(trifluoromethyl)phe-nyl]-3-{5-[(1E)-2-[(2-hydroxyethyl)(meth-yl)carbamoyl]eth-1-en-1-yl]-2-methoxybenzamido}-7-(2,2,2-trifluoroethylidene)bi-cyclo[2.2.1]heptane-2-carboxamide] the EC50 was 35 nM. `COc1ccc(COC2=NOC3COCC23)cc1C(=O)N[C@H]1[C@@H](C(=O)Nc2ccc(F)c(C(F)(F)F)c2)[C@H]2CC[C@@H]1/C2=C\C1CC1` (stereo partly drawn) [Example 300, (1R,2S,3R,4R,7Z)-3-[5-({3aH,4H,6H,6aH-furo[3,4-d][1,2]oxazol-3-yloxy}methyl)-2-methoxybenzamido]-7-(cyclopropylmethylidene)-N-[4-fluoro-3-(trifluoromethyl)phenyl]bicyclo[2.2.1] heptane-2-carboxamide] gave an EC50 of 206 nM. With `COc1ccc(CCCCOC(=O)NC2CCC2)cc1C(=O)N[C@@H]1C2CCC(/C2=C/C(F)(F)F)[C@@H]1C(=O)Nc1ccc(F)c(C(F)(F)F)c1` (stereo partly drawn) [Example 102, 4-(3-{[(2R,3S,7Z)-3-{[4-fluoro-3-(trifluoromethyl)phe-nyl]carbamoyl}-7-(2,2,2-trifluoroethylidene)bi-cyclo[2.2.1]heptan-2-yl]carbamoyl}-4-methoxyphenyl)butyl N-cyclobutylcarbamate] the EC50 was 439 nM. With `COc1ccc(C#CCCO)cc1C(=O)N[C@@H]1C2CCC(/C2=C/C(F)(F)F)[C@@H]1C(=O)Nc1ccc(F)c(C(F)(F)F)c1` (stereo partly drawn) [Example 76, (2S,3R,7Z)-N-[4-fluoro-3-(trifluoromethyl)phe-nyl]-3-[5-(4-hydroxybut-1-yn-1-yl)-2-methoxybenzamido]-7-(2,2,2-trifluoroethylidene)bi-cyclo[2.2.1]heptane-2-carboxamide] the EC50 was 66 nM. Molecule “(7Z)-7-(4,4- dimethylpentylidene)- N-[4-fluoro-3- (trifluoromethyl)phe- nyl]-3-[5-(3- hydroxypropyl)-2- methoxybenzamido] bicyclo[2.2.1]heptane- 2-carboxamide [Example 164]” has an EC50 of 67 nM. With `COc1ccc(S(=O)(=O)N2CC3CCC(C2)O3)cc1C(=O)N[C@H]1[C@@H](C(=O)Nc2ccc(F)c(C(F)(F)F)c2)[C@H]2CC[C@@H]1/C2=C\C1CC1` [Example 221, (1R,2S,3R,4R,7Z)-7-(cyclopropylmethyl-idene)-N-[4-fluoro-3-(trifluoromethyl)phenyl]-3-(2-methoxy-5-{8-oxa-3-azabicyclo[3.2.1]octane-3-sulfonyl}benzamido) bicyclo[2.2.1]heptane-2-carboxamide] the EC50 was 44.9 nM. In the case of `COc1ccc(CCCCC(F)(F)F)cc1C(=O)NC1C2CCC(/C2=C/C2CCC2)[C@@H]1C(=O)Nc1ccc(F)c(C(F)(F)F)c1` (some centres unmarked) [Example 193, (7Z)-7-(cyclobutylmethyli-dene)-N-[4-fluoro-3-(trifluoromethyl)phe-nyl]-3-[2-methoxy-5-(5,5,5-trifluoropentyl)benz-amido]bicyclo[2.2.1] heptane-2-carboxamide], the EC50 is reported as 55 nM. In the case of `COc1ccc(COc2c(F)cccc2C(OC(=O)Nc2ccccc2)C(F)(F)F)cc1C(=O)N[C@H]1[C@@H](C(=O)Nc2ccc(F)c(C(F)(F)F)c2)[C@H]2CC[C@@H]1/C2=C\C1CC1` (stereo partly drawn) [Example 364, 1-(2-((3-(((1R,2R,3S,4R,Z)-7-(cyclopropyl-methylene)-3-((4-fluoro-3-(trifluoromethyl)phenyl)carbamoyl)bicyclo[2.2.1]heptan-2-yl)carbamoyl)-4-methoxybenzyl)oxy)-3-fluorophenyl)-2,2,2-trifluoroethyl phenylcarbamate], the EC50 is reported as 1.1 nM. Molecule `COc1ccc(CC[C@@H](C)O)cc1C(=O)N[C@@H]1C2CCC(/C2=C/C2CC2)[C@@H]1C(=O)Nc1ccc(F)c(C(F)(F)F)c1` (stereo partly drawn) [Example 95, (2S,3R,7Z)-7-(cyclopropylmethyli-dene)-N-[4-fluoro-3-(trifluoromethyl)phe-nyl]-3-{5-[(3R)-3-hydroxybutyl]-2-methoxybenzamido} bicyclo[2.2.1]heptane-2-carboxamide] has an EC50 of 50 nM. Molecule `COC(=O)c1ccc(F)cc1Cc1ccc(OC)c(C(=O)NC2C3CCC(/C3=C/C(F)(F)F)[C@@H]2C(=O)Nc2ccc(F)c(C(F)(F)F)c2)c1` (stereo partly drawn) [Example 156, methyl 4-fluoro-2-[(3-{[(2R,3S,7Z)-3-{[4-fluoro-3-(trifluoromethyl)phe-nyl]carbamoyl}-7-(2,2,2-trifluoroethylidene)bi-cyclo[2.2.1]heptan-2-yl]carbamoyl}-4-methoxyphenyl)meth-yl]benzoate] has an EC50 of 464 nM. Work on `COc1ccc(C(=O)N2CC3(COC3)C2)cc1C(=O)N[C@H]1[C@@H](C(=O)Nc2ccc(F)c(C(F)(F)F)c2)[C@H]2CC[C@@H]1/C2=C\C1CC1` [Example 248, (1R,2S,3R,4R,7Z)-7-(cyclopropylmethyl-idene)-N-[4-fluoro-3-(trifluoromethyl)phenyl]-3-(2-methoxy-5-{2-oxa-6-azaspiro[3.3]heptane-6-carbonyl}benzamido) bicyclo[2.2.1]heptane-2-carboxamide] yielded an EC50 of 128 nM. Molecule `COc1ccc([C@H]2C[C@H](O)C2)cc1C(=O)NC1C2CCC(/C2=C/C2CC2)[C@@H]1C(=O)Nc1ccc(F)c(C(F)(F)F)c1` (stereo partly drawn) [Example 148, (2S,3R,7Z)-7-(cyclopropylmethyli-dene)-N-[4-fluoro-3-(trifluoromethyl)phe-nyl]-3-{2-methoxy-5-[(1r,3r)-3-hydroxycyclobutyl]benzamido}bicyclo [2.2.1]heptane-2-carboxamide] has an EC50 of 6 nM. `CCOC(=O)C1CCCC(c2ccc(OC)c(C(=O)N[C@@H]3C4CCC(/C4=C/C(F)(F)F)[C@@H]3C(=O)Nc3ccc(F)c(C(F)(F)F)c3)c2)C1` (some centres unmarked) [Example 142] was tested, and the EC50 was 167 nM.
